Measured values: patent publication US20090227616A1, “INHIBITORS OF AKT ACTIVITY” (SMITHKLINE BEECHAM CORPORATION, a corporation, priority 2005, published 2009)
In brackets after ≈: the same amount, converted by molar mass.

Key:
[1] = Solubility in 50 mM phosphate buffer at pH 7.4; format: physicochemical; conditions: aqueous buffer
FL AKT2 = biological target: T1, FL AKT2 (Homo sapiens, UniProt P31751); assay: Full-length AKT enzyme assay (substrate phosphorylation, SPA); format: biochemical; conditions: 4 uM ATP
T1 construct: 0.025 um, FL AKT2
T1 sequence (P31751 whole entry): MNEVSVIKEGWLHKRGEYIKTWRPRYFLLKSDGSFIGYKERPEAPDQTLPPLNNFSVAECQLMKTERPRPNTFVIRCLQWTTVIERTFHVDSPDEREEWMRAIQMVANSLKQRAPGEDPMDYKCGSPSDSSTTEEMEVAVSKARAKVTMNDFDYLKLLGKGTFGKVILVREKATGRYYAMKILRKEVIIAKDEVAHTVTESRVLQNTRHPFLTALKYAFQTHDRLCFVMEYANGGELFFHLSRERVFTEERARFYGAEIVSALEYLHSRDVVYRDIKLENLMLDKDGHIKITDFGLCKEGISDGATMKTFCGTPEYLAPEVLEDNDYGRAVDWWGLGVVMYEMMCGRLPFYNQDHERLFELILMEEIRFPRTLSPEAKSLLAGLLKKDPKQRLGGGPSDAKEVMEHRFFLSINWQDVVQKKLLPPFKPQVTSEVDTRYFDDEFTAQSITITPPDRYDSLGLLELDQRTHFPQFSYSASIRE

FL AKT1 = biological target: T2, FL AKT1 (Homo sapiens, UniProt P31749); assay: as above; format: biochemical; conditions: 4 uM ATP
T2 construct: Full-length human AKT1 gene was amplified by PCR; His tag (from vector pFastBacHTb; own knowledge that this vector adds an N-terminal 6xHis and TEV site) (N); made in house; host or cells: baculovirus; virus produced in Sf9, protein expressed in T. ni insect cells
T2 sequence (P31749 whole entry): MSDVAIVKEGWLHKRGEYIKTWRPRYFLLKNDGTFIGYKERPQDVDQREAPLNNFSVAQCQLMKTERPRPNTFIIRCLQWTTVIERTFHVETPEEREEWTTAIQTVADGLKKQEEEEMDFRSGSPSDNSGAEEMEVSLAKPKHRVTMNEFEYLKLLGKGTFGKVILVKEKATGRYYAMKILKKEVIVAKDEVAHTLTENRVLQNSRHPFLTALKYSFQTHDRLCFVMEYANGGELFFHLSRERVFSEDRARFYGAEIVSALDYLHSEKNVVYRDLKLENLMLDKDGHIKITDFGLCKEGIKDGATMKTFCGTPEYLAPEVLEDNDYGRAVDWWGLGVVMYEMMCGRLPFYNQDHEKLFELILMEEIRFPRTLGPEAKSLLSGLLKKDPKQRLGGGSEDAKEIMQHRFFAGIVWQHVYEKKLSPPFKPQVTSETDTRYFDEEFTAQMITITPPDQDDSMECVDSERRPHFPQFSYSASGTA

[2] = tested on: LNCaP (lymph node metastasis of prostate cancer); assay: Methylene Blue Growth Inhibition Assay; format: cell-based; conditions: Homo sapiens, 72 h, 3 days
Description: (§1) Tumor cell lines used in this assay were BT474 (human breast carcinoma) and LNCaP (lymph node metastasis of prostate cancer). HFF (normal human foreskin fibroblast) was also included. All cell lines were cultured in RPMI 1640 media (Invitrogen Corporation 22400-071) containing 10% Fetal Bovine Serum (FBS) at 37° C. in a humidified 5% CO2 incubator. Cells were harvested using trypsin/EDTA, counted using a hemacytometer and plated in 96-well tissue culture plates (Costar 35-3075), 100 uL per well, at the following densities: BT474 15,000 cells/well, LNCaP 5,000 cells/well and HFF 5,000 cells/well. 10 mM stocks of compounds in DMSO were serially diluted in DMSO through nine 3-fold dilutions in 96-well plates (Costar Corning 3363), and stored at −80C. The next day, compound dilutions were thawed and 4 uL of each transferred to 662 uL RPMI 1640+100 ug/mL gentamicin, resulting in twice the final required test concentrations. 100 uL of compounds diluted in RPMI 1640 were added to all cell lines. The final concentration of DMSO in all wells, including controls, was 0.3%. Cells were incubated at 37C, 5% CO2 for 3 days. Medium was removed by aspiration. Cell biomass was estimated by staining cells with 80 uL methylene blue (Sigma M9140, 0.5% in 50:50 ethanol:water), and incubating at room temperature for 1 hour. Stain was aspirated and the plates rinsed by immersion in water, then air-dried. Stain was released from cells by adding 100 uL of solubilizing solution (1% N-lauroyl sarcosine, sodium salt, Sigma L5125, in PBS) and incubating at room temperature for at least 30 minutes. Plates were shaken and the optical density at 620 nm was measured on a microplate reader. Percent inhibition of cell growth was calculated relative to vehicle-treated control wells. Concentration of compound that inhibits 50% of cell growth (IC50) was interpolated using non-linear regression (Levenberg-Marquadt) and the equation, y=Vmax*(1−(x̂n/K̂n+x̂n)))+Y2. [Ref: Mager, M. E. (1972) Data Analysis in Biochemistry and Biophysics. New York: Academic Press]

[3] = tested on: BT474 (human breast carcinoma); assay: Methylene Blue Growth Inhibition Assay; format: cell-based; conditions: BT-474, 72 h, BT474, 3 days
Description: as §1

[4] = tested on: HFF (normal human foreskin fibroblast); assay: Methylene Blue Growth Inhibition Assay; format: cell-based; conditions: 72 h, 3 days
Description: as §1

CCn1c(-c2nonc2N)nc2c(C#CC(C)(C)O)ncc(OCCCN3CCCC3)c21 [Example 2, 4-(2-(4-amino-1,2,5-oxadiazol-3-yl)-1-ethyl-7-{[3-(1-pyrrolidinyl)propyl]oxy}-1H-imidazo[4,5-c]pyridin-4-yl)-2-methyl-3-butyn-2-ol]
solubility [1]: 152 µM (≈ 66.8 µg/mL)
IC50 (FL AKT2): 0.016 µM
IC50 (FL AKT1): 0.002 µM
IC50 [2]: 0.096 µM
IC50 [3]: 0.437 µM
IC50 [4]: > 15 µM

CCn1c(-c2nonc2N)nc2c(C#CC(C)(C)O)ncc(OC(CCN)C3CCCCC3)c21 (stereo not drawn) [Example 18, 4-[7-[(3-amino-1-cyclohexylpropyl)oxy]-2-(4-amino-1,2,5-oxadiazol-3-yl)-1-ethyl-1H-imidazo[4,5-c]pyridin-4-yl]-2-methyl-3-butyn-2-ol]
solubility [1]: 112 µM (≈ 52.4 µg/mL)
IC50 [2]: 0.061 µM
IC50 [3]: 0.051 µM
IC50 [4]: 3.21 µM

CCn1c(-c2nonc2N)nc2c(C#CC(C)(C)O)ncc(OCC3(CN)CC3)c21 [Example 15, 4-[7-({[1-(aminomethyl)cyclopropyl]methyl}oxy)-2-(4-amino-1,2,5-oxadiazol-3-yl)-1-ethyl-1H-imidazo[4,5-c]pyridin-4-yl]-2-methyl-3-butyn-2-ol]
solubility [1]: 160 µM (≈ 65.8 µg/mL)
IC50 [2]: 0.11 µM
IC50 [3]: 0.093 µM
IC50 [4]: > 30 µM

CCn1c(-c2nonc2N)nc2c(C#CC(C)(C)O)ncc(OCC(C)(C)CN)c21 [Example 7, 4-[7-[(3-amino-2,2-dimethylpropyl)oxy]-2-(4-amino-1,2,5-oxadiazol-3-yl)-1-ethyl-1H-imidazo[4,5-c]pyridin-4-yl]-2-methyl-3-butyn-2-ol]
solubility [1]: 209 µM (≈ 86.4 µg/mL)
IC50 [2]: 0.031 µM
IC50 [3]: 0.137 µM
IC50 [4]: 26.2 µM

CCCC(CCN)Oc1cnc(C#CC(C)(C)O)c2nc(-c3nonc3N)n(CC)c12 (stereo not drawn) [Example 16, 4-[7-{[1-(2-aminoethyl)butyl]oxy}-2-(4-amino-1,2,5-oxadiazol-3-yl)-1-ethyl-1H-imidazo[4,5-c]pyridin-4-yl]-2-methyl-3-butyn-2-ol]
solubility [1]: 179 µM (≈ 76.5 µg/mL)
IC50 [2]: 0.007 µM
IC50 [3]: 0.192 µM
IC50 [4]: 1.08 µM

CCn1c(-c2nonc2N)nc2c(C#CC(C)(C)O)ncc(OCCCN3CCCCC3)c21 [Example 1, 4-(2-(4-amino-1,2,5-oxadiazol-3-yl)-1-ethyl-7-{[3-(1-piperidinyl)propyl]oxy}-1H-imidazo[4,5-c]pyridin-4-yl)-2-methyl-3-butyn-2-ol]
solubility [1]: 35 µM (≈ 15.9 µg/mL)
IC50 (FL AKT2): 0.025 µM
IC50 (FL AKT1): 0.003 µM
IC50 [2]: 0.096 µM
IC50 [3]: 0.496 µM
IC50 [4]: 17.7 µM

CCCCC(CN)COc1cnc(C#CC(C)(C)O)c2nc(-c3nonc3N)n(CC)c12 (stereo not drawn) [Example 13, 4-[7-{[2-(aminomethyl)hexyl]oxy}-2-(4-amino-1,2,5-oxadiazol-3-yl)-1-ethyl-1H-imidazo[4,5-c]pyridin-4-yl]-2-methyl-3-butyn-2-ol]
solubility [1]: 108 µM (≈ 47.7 µg/mL)
IC50 [2]: 0.032 µM
IC50 [3]: 0.088 µM
IC50 [4]: 6.65 µM

CCCC(CN)COc1cnc(C#CC(C)(C)O)c2nc(-c3nonc3N)n(CC)c12 (stereo not drawn) [Example 11, 4-[7-{[2-(aminomethyl)pentyl]oxy}-2-(4-amino-1,2,5-oxadiazol-3-yl)-1-ethyl-1H-imidazo[4,5-c]pyridin-4-yl]-2-methyl-3-butyn-2-ol]
solubility [1]: 203 µM (≈ 86.8 µg/mL)
IC50 [2]: 0.057 µM
IC50 [3]: 0.225 µM
IC50 [4]: 15 µM
